The source of these data is US20240415819A1, “MACROCYCLIC COMPOUNDS AS PROTEASOME SUBUNIT BETA TYPE-5 INHIBITORS” (Lead Discovery Center GmbH, priority 2021, published 2024).

The test system of one assay is Karpas cells. Nature of the assay: Glo assay of Karpas cells (Table 3; ProteasomeGlo plating scheme). The settings on record: read-out: Pglo Karpas. It counts as cell-based. From the text:
Inhibition is indicated as IC50 [nM] (“-”=not measured). […] • Chymotrypsin-Like Cell-Based Proteasome-GloTM Assay (Promega; […]) • Cell culture 384-well plates (Greiner BioOne; 781080) • Dispensing cassette, MultiDrop Standard tube dispensing cassette (Thermo Scientific; 24072670) • DPBS (Pan BioTech; P04-36500) • Cell culture 384-well plates (Greiner BioOne; 781080) • CPD source plate: diamond-shape plate (Labcyte; LP-0200) • Intermediate plate (Labcyte; P-05525) [table] • a. Remove the plates with cells from the incubator. • b. Take all the plates including the compound plate, intermediate plate and Staurosporine plate to the ECHO. • c. Click on “Open” in the ECHO software and select the protocol “QLI5_25ul_30 uM-Grenier”. • d. Follow the on-screen prompts and instructions once you click “Start” to insert the compound plate, intermediate plate and destination plates. • e. Change the final number of destination plates on the program. • f. Follow the on-screen prompts and instructions once you click “Start” to load the Staurosporine and destination plates. • g. Once all the compounds, DMSO and Staurosporine have been transferred, place the destination plates in a wet tissue box. • h. Place the destination plates back into the incubator and incubate at 37° C., 5% CO2 for 105 minutes. • i. Re-seal all the compound+Stauro diamond and intermediate plates and store in the dark. Chymotrypsin like ProteasomeGlo Assay • 1. Thaw the components of the ProteasomeGlo assay at room temperature including the ProteasomeGlo Buffer, the lyophilized Luciferin Detection Reagent and the Suc-LLVY-Glo Substrate. • 2. Reconstitute the Luciferin Detection Reagent in the amber coloured bottle by adding 50 ml of the ProteasomeGlo Buffer. • 3. Vortex the Suc-LLVY-Glo Substrate briefly to reconstitute the Substrate well. • 4. Spin down the Substrate and add 250 μl of the Substrate to the reconstituted Luciferin Detection Reagent from step 2. • 5. Briefly vortex the amber bottle with the mix to prepare a homogenous solution. • 6. Place the mix prepared in step 5 to sit at room temperature for 60 minutes. • 7. After 60 minutes, pipette 25 μl of the mix from step 5 into all wells with the cells. • 8. Shake the plates for 2-5 minutes to ensure the complete mixing of the ProteasomeGlo reagent with the cells. • 9. Leave the plates in the dark for 10-15 minutes. • 10. Measure the luminescence read-out using the Viktor and the protocol “Luminescence_384Well_0.2 sec”. (Note: The Protoeasome-GloTM Reagent (combined Proteasome-GloTM Substrate, Proteasome-GloTM Buffer and Luciferin Detection Reagent) can be stored at 4° C. or -20° C. for 1 month with minimal loss of activity.)

In assay [1] the test system is B-cells isolated from PBMC's. Kind of assay: Chymotrypsin-like ProteasomeGlo assay in B-cells isolated from PBMCs. It is filed as cell-based, human. The settings on record: Homo sapiens. The source says:
PBMC's will be isolated from human blood followed by B-cell isolation from the PBMC's using the Miltenyi Isolation Kit. • 2. This experiment will use the Chymotrypsin-like ProteasomeGlo read-out to generate IC50's following compound treatment. • 3. Dilute all compounds 1:100 for the assay. • 4. […] Repeat the DMSO transfer with lane 12. • 5. Lane 12 should not be seeded with any cells. Only medium! • 6. For all steps, make sure the samples and reagents remain cool! • 7. While dealing with the buffy coats, be careful to not let any exposed skin to be in direct contact with the blood. […] PBMC isolation followed by B-cell isolation using the Miltenyi Kit • Day 2: B-cell plating, ECHO transfer and ProteasomeGlo assay For the initial steps and to make processing the buffy coats easier, separately process the buffy coats. • a. Cut the tube attached to the buffy coats carefully using a clean, sterile and fresh scalpel. • b. Transfer the blood into 2 individual 50 ml falcons. • c. Add an equal volume of DPBS to the blood in the falcons. • d. Add 20 ml of lymphocyte separating medium to two 50 ml falcons. • e. Carefully pour 15-20 ml of the blood+DPBS mix from step c. onto the lymphocyte separating medium from step d. • f. Centrifuge the falcons with the lymphocyte separating medium+blood mix at 800×g for 15 minutes using a swing-out rotor. • g. Following centrifugation, carefully remove the falcons from the centrifuge. • h. The following layers will be observed: • i. Aspirate the plasma layer off carefully without disturbing the different layers. • j. Remove the cell pellet using a pipette into two fresh 50 ml falcons. • k. Fill the falcons with the cells up to 50 ml with DPBS. • l. Centrifuge the falcons at 250×g for 10 minutes using a swing-out rotor (Brake-off). • m. Aspirate the complete DPBS off the cells without disturbing the cell pellet at the bottom of the falcon. • n. Re-suspend the cell pellet in 10 ml of 1×RBC lysis buffer. • o. Incubate the falcons at room temperature in the dark for 10 minutes. • p. After RBC lysis, centrifuge the tubes at 250×g for 10 minutes using a swing-out rotor (brake-off). • (*Note: If the cell pellet is still red or light red, repeat steps n. to p.!) • q. Re-suspend the cell pellet in DPBS up to 50 ml in the falcon. • r. Centrifuge the falcons at 250×g for 10 minutes using a swing-out rotor (Brake-off). • s. Aspirate the DPBS off the cells without disturbing the cell pellet at the bottom of the falcon. • t. Repeat the wash step as described in steps q. to s. 2× times more (total number of washes is 3×). • u. Aspirate the DPBS completely off the cell pellet after the last wash without disturbing the cell pellet. • v. Re-suspend the cell pellet in 20 ml of PBMC cell medium. • w. […] Re-suspend the pellet in volume of the B-cell isolation buffer calculated as follows: • k. Mix well using a 1 ml pipette and incubate the mix on ice for 20 mins. • l. In the meantime, equilibrate one LS Column as follows: • 1. Insert one LS Column into one slot of the separator as depicted in the pictures above. • 2. Place a 50 ml falcon at the bottom of the LS column to collect the wash flow-through. • 3. Add 3 ml of the B-cell isolation buffer into the column. • 4. Allow the buffer to flow-through making sure that the entire volume passes the column and that the column reservoir is empty before the addition of the cells. • 5. Remove the falcon with the flow-through and discard. • m. Place a fresh 50 ml falcon under the LS Column to collect the untouched B-cells isolated from the PBMCs. • n. Apply the entire volume of the cell+antibody+microbeads mix to the LS Column. • o. Collect the flow-through from each application of the mix into the same 50 ml falcon under the LS Column. • p. Once the complete volume of the cell+antibody+microbead mix has been passed through, proceed to washing of the column. • q. Add 3 ml of the B-cell isolation buffer to the LS Column and allow the buffer to flow-through. […]

The mark [2] stands for this setting: B-cells isolated from PBMC's, read-out: Pglo B-Cell.

Read-outs that look alike come from different tables or passages of the source.

Regarding `Cc1ccc2cc1CNC(=O)[C@H](CCc1ccccc1)NC(=O)[C@@H](N)CC(=O)N1CCCC(CCO2)C1` (stereo partly drawn) [Compound 8, (9S,12S)-12-amino-5^4-methyl-9-phenethyl-4-oxa-7,10-diaza-1(3,1)-piperidina-5(1,3)-benzenacyclotetradecaphane-8,11,14-trione], the IC50 (in the assay on Karpas cells; in assay [1] (setting [2])) was less than 100 nM in each case.
With `Cc1ccc2cc1CNC(=O)[C@H](CCc1ccccc1)NC(=O)[C@@H](NC(=O)CCc1cccc(F)c1)CC(=O)N1CCCC(CCO2)C1` (stereo partly drawn) [Compound 25, 3-(3-fluorophenyl)-N-((9S,12S)-5^4-methyl-8,11,14-trioxo-9-phenethyl-4-oxa-7,10-diaza-1(3,1)-piperidina-5(1,3)-benzenacyclotetradecaphane-12-yl)propanamide], the IC50 in assay [1] (setting [2]) is less than 100 nM.
The same measure, in the same setting: under `Cc1ccc2cc1CNC(=O)[C@H](CCc1ccccc1)NC(=O)[C@@H](NC(=O)c1ccccc1)CC(=O)N1CCCC(CCO2)C1` (stereo partly drawn) [Compound 26, N-((9S,12S)-5^4-methyl-8,11,14-trioxo-9-phenethyl-4-oxa-7,10-diaza-1(3,1)-piperidina-5(1,3)-benzenacyclotetradecaphane-12-yl)benzamide] stands less than 100 nM.
Take `CCOC(=O)N[C@H]1CC(=O)N2CCCC(CCOc3ccc(C)c(c3)CNC(=O)[C@H](CCc3ccccc3)NC1=O)C2` (stereo partly drawn) [Compound 39, ethyl ((9S,12S)-5^4-methyl-8,11,14-trioxo-9-phenethyl-4-oxa-7,10-diaza-1(3,1)-piperidina-5(1,3)-benzenacyclotetradecaphane-12-yl)carbamate]: the IC50 in assay [1] (read-out: Pglo B-Cell [nM]) is less than 100 nM.
As to `Cc1ccc2cc1CNC(=O)[C@H](CCc1ccccc1)NC(=O)[C@@H](NC(=O)c1ccccn1)CC(=O)N1CCCC(CCO2)C1` (stereo partly drawn) [Compound 40, N-((9S,12S)-5^4-methyl-8,11,14-trioxo-9-phenethyl-4-oxa-7,10-diaza-1(3,1)-piperidina-5(1,3)-benzenacyclotetradecaphane-12-yl)picolinamide], the IC50 in assay [1] (setting [2]) was less than 100 nM.
With `Cc1ccc2cc1CNC(=O)C(CCc1cccnc1)NC(=O)CCC(=O)N1CCCC(CCO2)C1` (stereo not drawn) [Compound 51, 5^4-methyl-9-(2-(pyridin-3-yl)ethyl)-4-oxa-7,10-diaza-1(3,1)-piperidina-5(1,3)-benzenacyclotetradecaphane-8,11,14-trione], the IC50 in assay [1] (setting [2]) was less than 100 nM.
With `Cc1ccc2cc1CNC(=O)[C@H](CCc1ccccc1)NC(=O)[C@@H](NC(=O)c1n[nH]c3ccccc13)CC(=O)N1CCCC(CCO2)C1` (stereo partly drawn) [Compound 60, N-((9S,12S)-5^4-methyl-8,11,14-trioxo-9-phenethyl-4-oxa-7,10-diaza-1(3,1)-piperidina-5(1,3)-benzenacyclotetradecaphane-12-yl)-1H-indazole-3-carboxamide], the IC50 (in the assay on Karpas cells; in assay [1] (setting [2])) was 100 to 500 nM each time.
Regarding `Cc1ccc2cc1CNC(=O)[C@H](Cc1c[nH]c3ccccc13)NC(=O)CCC(=O)N1CCCC(CCO2)C1` (stereo partly drawn) [Compound 77, (9S)-9-((1H-indol-3-yl)methyl)-5^4-methyl-4-oxa-7,10-diaza-1(3,1)-piperidina-5(1,3)-benzenacyclotetradecaphane-8,11,14-trione], the IC50 (with Karpas cells; in assay [1] (setting [2])) was 100 to 500 nM throughout.
For the compound `Cc1ccc2cc1CNC(=O)[C@H](C)NC(=O)CCC(=O)N1CCCC(CCO2)C1` (stereo partly drawn) [Compound 78, (9S)-5^4,9-dimethyl-4-oxa-7,10-diaza-1(3,1)-piperidina-5(1,3)-benzenacyclotetradecaphane-8,11,14-trione], the IC50 (with Karpas cells; in assay [1] (setting [2])) was 100 to 500 nM in each case.
In the case of `COc1ccccc1CC(=O)N[C@H]1CC(=O)N2CCCC(CCOc3ccc(C)c(c3)CNC(=O)[C@H](CCc3ccccc3)NC1=O)C2` (stereo partly drawn) [Compound 84, 2-(2-methoxyphenyl)-N-((9S,12S)-5^4-methyl-8,11,14-trioxo-9-phenethyl-4-oxa-7,10-diaza-1(3,1)-piperidina-5(1,3)-benzenacyclotetradecaphane-12-yl)acetamide], the IC50 in the assay on Karpas cells is less than 100 nM.
Still for that read-out and setting: under `COc1cccc(CC(=O)N[C@H]2CC(=O)N3CCCC(CCOc4ccc(C)c(c4)CNC(=O)[C@H](CCc4ccccc4)NC2=O)C3)c1` (stereo partly drawn) [Compound 85, 2-(3-methoxyphenyl)-N-((9S,12S)-5^4-methyl-8,11,14-trioxo-9-phenethyl-4-oxa-7,10-diaza-1(3,1)-piperidina-5(1,3)-benzenacyclotetradecaphane-12-yl)acetamide] stands less than 100 nM; under `CO[C@@H](C(=O)N[C@H]1CC(=O)N2CCCC(CCOc3ccc(C)c(c3)CNC(=O)[C@H](CCc3ccccc3)NC1=O)C2)c1ccccc1` (stereo partly drawn) [Compound 86, (2R)-2-methoxy-N-((9S,12S)-5^4-methyl-8,11,14-trioxo-9-phenethyl-4-oxa-7,10-diaza-1(3,1)-piperidina-5(1,3)-benzenacyclotetradecaphane-12-yl)-2-phenylacetamide], less than 100 nM.
Take `Cc1ccc2cc1CNC(=O)[C@H](CCc1ccccc1)NC(=O)[C@@H](NC(=O)c1cc3cc(C(F)(F)F)ccc3n1C)CC(=O)N1CCCC(CCO2)C1` (stereo partly drawn) [Compound 87, 1-methyl-N-((9S,12S)-5^4-methyl-8,11,14-trioxo-9-phenethyl-4-oxa-7,10-diaza-1(3,1)-piperidina-5(1,3)-benzenacyclotetradecaphane-12-yl)-5-(trifluoromethyl)-1H-indole-2-carboxamide]: in the assay on Karpas cells, the IC50 is less than 100 nM.
Still for that read-out and setting: under `Cc1ccc2cc1CNC(=O)[C@H](CCc1ccccc1)NC(=O)[C@@H](NC(=O)CN1CCCC1)CC(=O)N1CCCC(CCO2)C1` (stereo partly drawn) [Compound 89, N-((9S,12S)-5^4-methyl-8,11,14-trioxo-9-phenethyl-4-oxa-7,10-diaza-1(3,1)-piperidina-5(1,3)-benzenacyclotetradecaphane-12-yl)-2-(pyrrolidin-1-yl)acetamide] stands less than 100 nM.
